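Cultured in 96-well plates, cells were exposed to test compound for 48 hours across five concentrations. Here, GI50 denotes the concentration required for 50% inhibition of growth.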 The source made the active and inactive calls. Cut-off read from the data, not from the text of the source: active = GI50 up to about 1.1 µM and inactive = higher.
How the values were obtained:
Assay in all cases: NCI anticancer screen, dose series, 48 h
[1] = tested on: HOP-92
[2] = tested on: M14
[3] = tested on: CAKI-1
[4] = tested on: OVCAR-3
[5] = tested on: MDA-MB-231
[6] = tested on: MCF7
[7] = tested on: CCRF-CEM
[8] = tested on: SF-539
[9] = tested on: SK-MEL-28
[10] = tested on: NCI-H460
[11] = tested on: SF-268
[12] = tested on: MDA-MB-435
[13] = tested on: PC-3
[14] = tested on: HCT-15
[15] = tested on: SN12C
[16] = tested on: UO-31
[17] = tested on: 786-0
[18] = tested on: OVCAR-8
[19] = tested on: BT-549
[20] = tested on: Malme-3M

| SMILES | GI50 [1] | GI50 [2] | GI50 [3] | GI50 [4] | GI50 [5] | GI50 [6] | GI50 [7] | GI50 [8] | GI50 [9] | GI50 [10] | GI50 [11] | GI50 [12] | GI50 [13] | GI50 [14] [µM] | GI50 [15] | GI50 [16] | GI50 [17] | GI50 [18] | GI50 [19] | GI50 [20] |
| --- | --- | --- | --- | --- | --- | --- | --- | --- | --- | --- | --- | --- | --- | --- | --- | --- | --- | --- | --- | --- |
| O=C(O)CCc1nc2c(n1-c1ccccc1)C(=O)c1ccccc1C2=O | 0.0226 µM (active) | > 100 µM (inactive) | > 100 µM (inactive) | > 100 µM (inactive) | > 100 µM (inactive) | 97.7 µM (inactive) | > 100 µM (inactive) | > 100 µM (inactive) | > 100 µM (inactive) | > 100 µM (inactive) | > 100 µM (inactive) | 87.5 µM (inactive) | > 100 µM (inactive) | > 100 | > 100 µM (inactive) | > 100 µM (inactive) | > 100 µM (inactive) | > 100 µM (inactive) | > 100 µM (inactive) | – |
| Cc1nc2nc3c(ncn3COCCO)c(O)n2c1C(c1ccccc1)(c1ccccc1)c1ccccc1 | 16.7 µM (inactive) | 16.3 µM (inactive) | 60 µM (inactive) | 2.96 µM (inactive) | 14.5 µM (inactive) | 10.2 µM (inactive) | 13.2 µM (inactive) | 6.25 µM (inactive) | 20 µM (inactive) | 15.2 µM (inactive) | 16 µM (inactive) | 10.9 µM (inactive) | 12.9 µM (inactive) | 1.6 | 16.5 µM (inactive) | 30.3 µM (inactive) | 17.1 µM (inactive) | 14 µM (inactive) | 0.6 µM (active) | 18.3 µM (inactive) |
| CCOc1ccc2nc(NC(=O)/C(CC(=O)CC(C3=C(O)c4ccccc4CC3=O)c3ccccc3)=N\O)sc2c1 (stereo unspecified) | > 100 µM (inactive) | > 100 µM (inactive) | > 100 µM (inactive) | > 100 µM (inactive) | > 100 µM (inactive) | > 100 µM (inactive) | > 100 µM (inactive) | > 100 µM (inactive) | > 100 µM (inactive) | > 100 µM (inactive) | > 100 µM (inactive) | > 100 µM (inactive) | > 100 µM (inactive) | > 100 | > 100 µM (inactive) | > 100 µM (inactive) | > 100 µM (inactive) | > 100 µM (inactive) | > 100 µM (inactive) | > 100 µM (inactive) |
| Cn1c2c(c3ccccc31)CC(=S)N1CCCC(CC2O)C1 (stereo unspecified) | > 100 µM (inactive) | – | > 100 µM (inactive) | – | > 100 µM (inactive) | > 100 µM (inactive) | – | > 100 µM (inactive) | > 100 µM (inactive) | > 100 µM (inactive) | > 100 µM (inactive) | > 100 µM (inactive) | > 100 µM (inactive) | > 100 | > 100 µM (inactive) | 45.8 µM (inactive) | > 100 µM (inactive) | > 100 µM (inactive) | > 100 µM (inactive) | > 100 µM (inactive) |
| COc1cc(C2c3cc4c(cc3OC(O)C2C)OCO4)cc(OC)c1OC (stereo unspecified) | 0.562 µM (active) | 0.376 µM (active) | 0.612 µM (active) | 0.243 µM (active) | 0.532 µM (active) | 0.29 µM (active) | 0.229 µM (active) | 0.294 µM (active) | 0.863 µM (active) | 0.355 µM (active) | 1.51 µM (inactive) | 0.0377 µM (active) | 0.228 µM (active) | 0.403 | 0.446 µM (active) | 0.695 µM (active) | 0.507 µM (active) | 0.245 µM (active) | 1.14 µM (inactive) | 0.431 µM (active) |
| NC(=O)CC1(O)C=CC(=O)C=C1 | > 100 µM (inactive) | > 100 µM (inactive) | 41.9 µM (inactive) | > 100 µM (inactive) | > 100 µM (inactive) | > 100 µM (inactive) | > 100 µM (inactive) | > 100 µM (inactive) | > 100 µM (inactive) | > 100 µM (inactive) | – | > 100 µM (inactive) | > 100 µM (inactive) | > 100 | > 100 µM (inactive) | > 100 µM (inactive) | > 100 µM (inactive) | > 100 µM (inactive) | > 100 µM (inactive) | > 100 µM (inactive) |
| CC(NC1=NCCO1)c1ccsc1 (stereo unspecified) | 23.6 µM (inactive) | 17.6 µM (inactive) | > 100 µM (inactive) | 28.8 µM (inactive) | 18.2 µM (inactive) | 34.8 µM (inactive) | 19.4 µM (inactive) | 16.2 µM (inactive) | 19 µM (inactive) | 10.9 µM (inactive) | – | 20.9 µM (inactive) | 21.1 µM (inactive) | 40.7 | – | > 100 µM (inactive) | 18.8 µM (inactive) | 28.6 µM (inactive) | 31.6 µM (inactive) | 21 µM (inactive) |
| CN(C)c1ccc(/C=C2\C[C@H]3[C@@H]4CCc5cc(OCCN6CCCC6)ccc5[C@H]4CC[C@]3(C)[C@H]2O)cc1 | 6.07 µM (inactive) | 4.27 µM (inactive) | 13.9 µM (inactive) | 14.6 µM (inactive) | 7.14 µM (inactive) | 7.35 µM (inactive) | 2.46 µM (inactive) | 8.32 µM (inactive) | 5.11 µM (inactive) | 8.07 µM (inactive) | 21.9 µM (inactive) | 8.43 µM (inactive) | 13.8 µM (inactive) | 5.3 | 16.9 µM (inactive) | 5.65 µM (inactive) | 2.13 µM (inactive) | 6.32 µM (inactive) | 16 µM (inactive) | 11.5 µM (inactive) |
| O=C1Nc2ccccc2/C1=N/Nc1ccc([N+](=O)[O-])cc1[N+](=O)[O-] | 3.58 µM (inactive) | 12.9 µM (inactive) | 20.4 µM (inactive) | 3.13 µM (inactive) | 13.2 µM (inactive) | 8.67 µM (inactive) | > 100 µM (inactive) | 2.48 µM (inactive) | 63 µM (inactive) | 7.89 µM (inactive) | 20.9 µM (inactive) | 98.4 µM (inactive) | 12.9 µM (inactive) | 13.8 | 11.3 µM (inactive) | 13.2 µM (inactive) | 9.25 µM (inactive) | 9.59 µM (inactive) | 12.1 µM (inactive) | – |
| CCCC(=O)N(C(=O)CCC)C1=C(Cl)C(=O)c2ccccc2C1=O | 4.01 µM (inactive) | 6.62 µM (inactive) | 2.24 µM (inactive) | 3.21 µM (inactive) | 18.2 µM (inactive) | 1.84 µM (inactive) | 2.09 µM (inactive) | 3.62 µM (inactive) | 3.72 µM (inactive) | 5.22 µM (inactive) | 4.32 µM (inactive) | 4.63 µM (inactive) | 4.06 µM (inactive) | 2.1 | 13.3 µM (inactive) | 1.62 µM (inactive) | 9.98 µM (inactive) | 6.25 µM (inactive) | 3.41 µM (inactive) | – |
| O=C1CSC(c2ccccc2[N+](=O)[O-])N1c1ccc(-n2c(-c3ccccc3)nc3ccccc3c2=O)cc1 (stereo unspecified) | 27 µM (inactive) | – | 67.9 µM (inactive) | 79.6 µM (inactive) | 46.3 µM (inactive) | 32.4 µM (inactive) | 41.1 µM (inactive) | 59 µM (inactive) | > 100 µM (inactive) | 31.5 µM (inactive) | 46.9 µM (inactive) | > 100 µM (inactive) | 35.7 µM (inactive) | 42.3 | > 100 µM (inactive) | 13.9 µM (inactive) | 31.4 µM (inactive) | 40.4 µM (inactive) | 57.7 µM (inactive) | 39.8 µM (inactive) |
| CC(=O)O[C@@H]1[C@@H](C)[C@]2(CC(c3ccoc3)OC2O)C2CCC3O[C@]3(C)[C@]2(C)[C@@H]1OC(C)=O (stereo partly specified) | 34 µM (inactive) | 82.6 µM (inactive) | > 100 µM (inactive) | 42 µM (inactive) | > 100 µM (inactive) | 41.5 µM (inactive) | 18.2 µM (inactive) | 22.7 µM (inactive) | 25.9 µM (inactive) | 29.7 µM (inactive) | 91 µM (inactive) | 43.6 µM (inactive) | 32.8 µM (inactive) | 25.4 | 39 µM (inactive) | 37.2 µM (inactive) | 19.2 µM (inactive) | 37.2 µM (inactive) | 25.2 µM (inactive) | – |
| O=C1Nc2c(Cl)cc(Cl)cc2/C1=N/N=C/c1ccco1 | 27.4 µM (inactive) | 34.7 µM (inactive) | 24.3 µM (inactive) | 24.7 µM (inactive) | 20.3 µM (inactive) | 20.2 µM (inactive) | 29 µM (inactive) | 29.1 µM (inactive) | 33 µM (inactive) | 28.2 µM (inactive) | – | 29.9 µM (inactive) | 29.8 µM (inactive) | 28.8 | 26.6 µM (inactive) | 20.5 µM (inactive) | 38.8 µM (inactive) | 22.8 µM (inactive) | 22.2 µM (inactive) | 56.6 µM (inactive) |
| Cc1oc2c(c1C)S(=O)(=O)C(C#N)=CN2 | > 100 µM (inactive) | > 100 µM (inactive) | > 100 µM (inactive) | > 100 µM (inactive) | > 100 µM (inactive) | > 100 µM (inactive) | – | > 100 µM (inactive) | > 100 µM (inactive) | > 100 µM (inactive) | > 100 µM (inactive) | > 100 µM (inactive) | > 100 µM (inactive) | > 100 | > 100 µM (inactive) | > 100 µM (inactive) | > 100 µM (inactive) | > 100 µM (inactive) | > 100 µM (inactive) | 42.2 µM (inactive) |
| COCC[N+](CCNC(=O)c1cccc2c(N)c3cccc(C)c3nc12)(CCOC)Cc1ccc([N+](=O)[O-])cc1 | 29 µM (inactive) | 29.6 µM (inactive) | > 100 µM (inactive) | 16.7 µM (inactive) | 28.1 µM (inactive) | 19.4 µM (inactive) | 6.15 µM (inactive) | 17.3 µM (inactive) | 13.8 µM (inactive) | 6.47 µM (inactive) | 12.4 µM (inactive) | 30 µM (inactive) | 9.53 µM (inactive) | 41.8 | 32.9 µM (inactive) | 63 µM (inactive) | 19.1 µM (inactive) | 26.6 µM (inactive) | 21.8 µM (inactive) | – |
